Laboratory results taken from ChEMBL document CHEMBL5244262, “Discovery and optimization of benzenesulfonamides-based hepatitis B virus capsid modulators via contemporary medicinal chemistry strategies” (Eur J Med Chem, 2020).

Key:
Hepatitis B virus [1] = experiment: Antiviral activity against HBV harboring wild type core protein; assay type: functional, organism-based
Hepatitis B virus [2] = experiment: Antiviral activity against HBV harboring core protein T33N mutant; assay type: functional, organism-based
Hepatitis B virus [3] = experiment: Antiviral activity against HBV harboring core protein T33Q mutant; assay type: functional, organism-based
Hepatitis B virus [4] = experiment: Antiviral activity against HBV harboring core protein T33S mutant; assay type: functional, organism-based
Hepatitis B virus [5] = experiment: Antiviral activity against HBV harboring core protein P25G mutant; assay type: functional, organism-based
Hepatitis B virus [6] = experiment: Antiviral activity against HBV harboring core protein P25A mutant; assay type: functional, organism-based
Hepatitis B virus [7] = experiment: Antiviral activity against HBV harboring core protein P25S mutant; assay type: functional, organism-based
Hepatitis B virus [8] = experiment: Antiviral activity against HBV harboring core protein V124I mutant; assay type: functional, organism-based
Hepatitis B virus [9] = experiment: Antiviral activity against HBV harboring core protein V124F mutant; assay type: functional, organism-based
Hepatitis B virus [10] = experiment: Ratio of EC50 for antiviral activity against HBV harboring core protein T33N mutant to EC50 for antiviral activity against HBV harboring wild type core protein; assay type: functional
Hepatitis B virus [11] = experiment: Ratio of EC50 for antiviral activity against HBV harboring core protein T33Q mutant to EC50 for antiviral activity against HBV harboring wild type core protein; assay type: functional
Hepatitis B virus [12] = experiment: Ratio of EC50 for antiviral activity against HBV harboring core protein T33S mutant to EC50 for antiviral activity against HBV harboring wild type core protein; assay type: functional
Hepatitis B virus [13] = experiment: Ratio of EC50 for antiviral activity against HBV harboring core protein P25G mutant to EC50 for antiviral activity against HBV harboring wild type core protein; assay type: functional
Hepatitis B virus [14] = experiment: Ratio of EC50 for antiviral activity against HBV harboring core protein P25A mutant to EC50 for antiviral activity against HBV harboring wild type core protein; assay type: functional
Hepatitis B virus [15] = experiment: Ratio of EC50 for antiviral activity against HBV harboring core protein P25S mutant to EC50 for antiviral activity against HBV harboring wild type core protein; assay type: functional
Hepatitis B virus [16] = experiment: Ratio of EC50 for antiviral activity against HBV harboring core protein V124I mutant to EC50 for antiviral activity against HBV harboring wild type core protein; assay type: functional
Hepatitis B virus [17] = experiment: Ratio of EC50 for antiviral activity against HBV harboring core protein V124F mutant to EC50 for antiviral activity against HBV harboring wild type core protein; assay type: functional
Hepatitis B virus [18] = experiment: Antiviral activity against Hepatitis B virus infected in HepG2.2.15 cells; assay type: functional, organism-based
Hepatitis B virus [19] = experiment: Antiviral activity against Hepatitis B virus harboring rtL180M/M204V transfected in HepG2 cells; assay type: functional, organism-based
Hepatitis B virus [20] = experiment: Antiviral activity against Hepatitis B virus harboring rtL180M/M204V/N236T transfected in HepG2 cells; assay type: functional, organism-based
Hepatitis B virus [21] = experiment: Antiviral activity against Hepatitis B virus harboring rtA181V transfected in HepG2 cells; assay type: functional, organism-based
Hepatitis B virus [22] = experiment: Antiviral activity against Hepatitis B virus harboring rtN236T transfected in HepG2 cells; assay type: functional, organism-based
Hepatitis B virus [23] = experiment: Antiviral activity against Hepatitis B virus harboring rtA181V/N236T transfected in HepG2 cells; assay type: functional, organism-based
[24] = Oral bioavailability in mouse; assay type: ADME, organism-based; settings: in vivo
Hepatitis B virus [25] = experiment: Antiviral activity against Hepatitis B virus infected in HePAD38 cells; assay type: functional, organism-based
[26] = Cytotoxicity against human HePAD38 cells; assay type: toxicity, cell-based
[27] = Selectivity index, ratio of CC50 for human HePAD38 cells to EC50 for antiviral activity against Hepatitis B virus infected in HePAD38 cells; assay type: toxicity, cell-based; settings: read-out: Ratio CC50/EC50
Hepatitis B virus [28] = experiment: Antiviral activity against Hepatitis B virus infected in AML12HBV10 cells; assay type: functional, organism-based
[29] = Cytotoxicity against mouse AML12HBV10; assay type: toxicity, cell-based; settings: AML12HBV10 cells
[30] = Cytotoxicity in human primary hepatocytes; assay type: toxicity, cell-based, Hepatocyte
[31] = Cytotoxicity against human HepG2.2.15 cells; assay type: toxicity, cell-based, HepG2 2.2.15
Hepatitis B virus [32] = experiment: Antiviral activity against Hepatitis B virus infected in HepDE19 cells; assay type: functional, organism-based
[33] = Cytotoxicity against human HepDE19 cells; assay type: functional
Hepatitis B virus [34] = experiment: Antiviral activity against Hepatitis B virus infected in primary hepatocytes; assay type: functional, organism-based; settings: Hepatocyte
Hepatitis B virus [35] = experiment: Antiviral activity against Hepatitis B virus infected in HepBHAe82 cells; assay type: functional, organism-based
[36] = Cytotoxicity against human HepBHAe82 cells; assay type: toxicity, cell-based
Hepatitis B virus [37] = experiment: Antiviral activity against Hepatitis B virus infected in HepDES19 cells; assay type: functional, organism-based
[38] = Cytotoxicity against human HepDES19 cells; assay type: toxicity, cell-based
Hepatitis B virus [39] = experiment: Antiviral activity against Hepatitis B virus infected in HePAD38 cells assessed as reduction in HBeAg production; assay type: functional, organism-based
[40] = Half life in human plasma; assay type: ADME, cell-free
[41] = Half life in mouse plasma; assay type: ADME, cell-free
[42] = Half life in dog plasma; assay type: ADME, cell-free, Canis lupus familiaris
[43] = Oral bioavailability in CD1 mouse; assay type: ADME, organism-based; settings: in vivo
Hepatitis B virus [44] = experiment: Antiviral activity against Hepatitis B virus assessed as inhibition of nucleocapsid assembly; assay type: functional, organism-based

With `COC(=O)C1=C(CN2CC(F)(F)C[C@H]2C(=O)O)NC(c2nccs2)=N[C@H]1c1ccc(F)cc1Cl` the EC50 (Hepatitis B virus [1]) was 91 nM, the EC50 (Hepatitis B virus [2]) was 3470 nM and the EC50 (Hepatitis B virus [3]) was 1970 nM. For the same molecule, the EC50 (Hepatitis B virus [4]) was 162 nM, the EC50 (Hepatitis B virus [5]) was 1380 nM and the EC50 (Hepatitis B virus [6]) was 735 nM. It also gave an EC50 (Hepatitis B virus [7]) of 902 nM, an EC50 (Hepatitis B virus [8]) of 9 nM and an EC50 (Hepatitis B virus [9]) of 1090 nM. The Ratio (Hepatitis B virus [10]) was 38.1, the Ratio (Hepatitis B virus [11]) was 21.7 and the Ratio (Hepatitis B virus [12]) was 1.8. The Ratio (Hepatitis B virus [13]) was 15.2, the Ratio (Hepatitis B virus [14]) was 8.1 and the Ratio (Hepatitis B virus [15]) was 9.9. It also gave a Ratio (Hepatitis B virus [16]) of 0.1 and a Ratio (Hepatitis B virus [17]) of 11.9.
In the case of `O=C(Nc1cc(F)c(F)c(F)c1)c1ccc(F)c(S(=O)(=O)N2CCC(O)CC2)c1`, the EC50 (Hepatitis B virus [18]) is reported as 400 nM, the EC50 (Hepatitis B virus [19]) is reported as 820 nM and the EC50 (Hepatitis B virus [20]) is reported as 820 nM. It also gave an EC50 (Hepatitis B virus [21]) of 820 nM, an EC50 (Hepatitis B virus [22]) of 820 nM and an EC50 (Hepatitis B virus [23]) of 820 nM. The bioavailability [24] was at least 84.6%, the EC50 (Hepatitis B virus [25]) was 330 nM and the CC50 [26] was 5140 nM. The selectivity ratio [27] was 15.6, the EC50 (Hepatitis B virus [1]) was 390 nM and the EC50 (Hepatitis B virus [2]) was over 5000 nM. For the same molecule, the EC50 (Hepatitis B virus [3]) was over 5000 nM, the EC50 (Hepatitis B virus [4]) was 878 nM and the EC50 (Hepatitis B virus [5]) was 4750 nM. It also gave an EC50 (Hepatitis B virus [6]) of 895 nM, an EC50 (Hepatitis B virus [7]) of 930 nM and an EC50 (Hepatitis B virus [8]) of 42 nM. The EC50 (Hepatitis B virus [9]) was 289 nM, the Ratio (Hepatitis B virus [10]) was over 13 and the Ratio (Hepatitis B virus [11]) was over 13. The Ratio (Hepatitis B virus [12]) was 2.3, the Ratio (Hepatitis B virus [13]) was 12.2 and the Ratio (Hepatitis B virus [14]) was 2.3. It also gave a Ratio (Hepatitis B virus [15]) of 2.4, a Ratio (Hepatitis B virus [16]) of 0.1 and a Ratio (Hepatitis B virus [17]) of 0.7.
Work on `CC[C@@H](C)NS(=O)(=O)c1ccc(F)c(C(=O)Nc2ccc(F)c(F)c2)c1` yielded an EC50 (Hepatitis B virus [28]) of 80 nM, an EC90 (Hepatitis B virus [28]) of 330 nM and a CC50 [29] of over 10000 nM. The EC50 (Hepatitis B virus [18]) was 80 nM, the EC90 (Hepatitis B virus [18]) was 330 nM and the CC50 [30] was over 10000 nM. The CC50 [31] was over 10000 nM, the EC50 (Hepatitis B virus [32]) was 80 nM and the EC90 (Hepatitis B virus [32]) was 330 nM. The CC50 [33] was over 10000 nM, the EC50 (Hepatitis B virus [34]) was 80 nM and the EC90 (Hepatitis B virus [34]) was 330 nM. For the same molecule, the EC50 (Hepatitis B virus [35]) was 80 nM, the EC90 (Hepatitis B virus [35]) was 330 nM and the CC50 [36] was over 10000 nM.
For `CCC(C)NS(=O)(=O)c1ccc(F)c(C(=O)Nc2ccc(F)c(F)c2)c1` (stereo unspecified), the IC50 (Hepatitis B virus [28]) was 300 nM, the CC50 [29] was over 50000 nM and the IC50 (Hepatitis B virus [37]) was 100 nM. For the same molecule, the CC50 [38] was over 50000 nM.
In the case of `C#CCNC(=O)C(=O)c1c(C)c(C(=O)Nc2ccc(F)c(F)c2)n(C)c1C`, the IC50 (Hepatitis B virus [39]) is reported as 3 nM, the CC50 [30] is reported as over 10000 nM and the half-life [40] is reported as over 24 h. It also gave a half-life [41] of over 24 h, a half-life [42] of over 24 h and a bioavailability [43] of over 100%.
Molecule `O=C1CCN(S(=O)(=O)c2cc(C(=O)Nc3cc(F)c(F)c(F)c3)ccc2F)CC1` has an EC50 (Hepatitis B virus [25]) of 300 nM, a CC50 [26] of 7410 nM and a selectivity ratio [27] of 24.7.
Work on `O=C(Nc1cc(F)c(F)c(F)c1)c1ccc(F)c(S(=O)(=O)N2C[C@H]3CC[C@@H]2CC3O)c1` (stereo partly specified) yielded an EC50 (Hepatitis B virus [25]) of 350 nM, a CC50 [26] of 10700 nM and a selectivity ratio [27] of 30.5.
Molecule `O=C1CC2CN(S(=O)(=O)c3cc(C(=O)Nc4cc(F)c(F)c(F)c4)ccc3F)CC2C1` (stereo unspecified) has an EC50 (Hepatitis B virus [25]) of 390 nM, a CC50 [26] of 18700 nM and a selectivity ratio [27] of 48.
Molecule `CC(NS(=O)(=O)c1c2ncccc2c(C(=O)Nc2ccc(F)c(F)c2)n1C)C(F)(F)F` (stereo unspecified) has an EC50 (Hepatitis B virus [18]) of 0.1 nM, an IC50 (Hepatitis B virus [44]) of under 1000 nM and a CC50 [31] of over 30000 nM.
Molecule `O=C(Nc1cc(F)c(F)c(F)c1)c1ccc(F)c(S(=O)(=O)N2C[C@H]3CC[C@@H]2CC3=O)c1` has an EC50 (Hepatitis B virus [25]) of 220 nM, a CC50 [26] of 7410 nM and a selectivity ratio [27] of 33.7.
Molecule `O=C(Nc1cc(F)c(F)c(F)c1)c1ccc(F)c(S(=O)(=O)NC2CCC(O)CC2)c1` (stereo unspecified) has an EC50 (Hepatitis B virus [25]) of 250 nM, a CC50 [26] of 10700 nM and a selectivity ratio [27] of 42.7.
For `Cn1cc2c(c1C(=O)Nc1cc(F)c(F)c(F)c1)OCC1CN(C(=O)c3ncco3)CC1NS2(=O)=O` (stereo unspecified), the EC50 (Hepatitis B virus [25]) was under 1000 nM.
Work on `O=C(Nc1cc(F)c(F)c(F)c1)c1ccc(F)c(S(=O)(=O)N2CCC(=NO)CC2)c1` yielded an EC50 (Hepatitis B virus [25]) of 210 nM, a CC50 [26] of 7410 nM and a selectivity ratio [27] of 35.3.
For `O=C(Nc1cc(F)c(F)c(F)c1)c1ccc(F)c(S(=O)(=O)N2CC3CC(O)CC3C2)c1` (stereo unspecified), the EC50 (Hepatitis B virus [25]) was 330 nM, the CC50 [26] was 22200 nM and the selectivity ratio [27] was 74.1.
In the case of `COC(=O)C1=C(C)NC(c2ncc(F)cc2F)=N[C@H]1c1ccc(F)cc1Cl`, the EC50 (Hepatitis B virus [1]) is reported as 149 nM, the EC50 (Hepatitis B virus [2]) is reported as over 10000 nM and the EC50 (Hepatitis B virus [3]) is reported as 3720 nM. It also gave an EC50 (Hepatitis B virus [4]) of 451 nM, an EC50 (Hepatitis B virus [5]) of over 10000 nM and an EC50 (Hepatitis B virus [6]) of 3450 nM. The EC50 (Hepatitis B virus [7]) was 4280 nM, the EC50 (Hepatitis B virus [8]) was 13 nM and the EC50 (Hepatitis B virus [9]) was 2330 nM. The Ratio (Hepatitis B virus [10]) was over 67, the Ratio (Hepatitis B virus [11]) was 25 and the Ratio (Hepatitis B virus [12]) was 3. For the same molecule, the Ratio (Hepatitis B virus [13]) was over 67, the Ratio (Hepatitis B virus [14]) was 23.2 and the Ratio (Hepatitis B virus [15]) was 28.7. For the same molecule, the Ratio (Hepatitis B virus [16]) was 0.09 and the Ratio (Hepatitis B virus [17]) was 15.7.
